Measured values from publication PMC11240878, “Synthesis, enzyme inhibition assay, and molecular modeling study of novel pyrazolines linked to 4-methylsulfonylphenyl scaffold: antitumor activity and cell cycle analysis” (RSC Advances, 2024).
Several values for one entry are separate records, joined by “and”; a condition that tells them apart may be missing. Identical values can stand only once.

Experiments:
[1] = tested on: breast adenocarcinoma MCF-7; assay: cells; details: Homo sapiens, MCF7, 48 h, read-out: In vitro cytotoxicity IC50, MCF-7; MTT, 48 h drug exposure; mean ± SD of three experiments
in vitro = details: human
Method: (§1) A normal fibroblast-like fetal lung cell line (WI-38) was used to further investigate the therapeutic safety of the newly synthesized hybrids and evaluate their selective cytotoxicity toward normal and tumor cells.[33,77]
(§2) The antitumor experiment was conducted on 59 human tumor cell lines derived from nine different human tissues, following the procedure of the Drug Evaluation Branch at the NCI, Bethesda, MD.[33]

[2] = tested on: WI-38 normal fibroblast cells; assay: in vitro; details: ratio of WI38 IC50 to cancer cell IC50 values
Method: as §1, §2

leukemia HL-60 = assay: cells; details: Homo sapiens, HL-60, 48 h, read-out: In vitro cytotoxicity IC50
Method: as §2

MDA-MB-231 = assay: cells; details: Homo sapiens, MDA-MB-231, 48 h, read-out: In vitro cytotoxicity IC50
Method: as §2

MOLT-4 = assay: NCI single-dose GI%, leukemia; type: cell-based, human; details: MOLT-4, leukemia; 10.0 μM in one dose
UACC-257 = assay: NCI single-dose GI%, melanoma; type: cell-based, human; details: UACC-257, melanoma; 10.0 μM in one dose
59 cancer cell lines = assay: NCI 59 cancer cell line panel, single dose; type: cell-based, human; details: 10 μM single dose; for MG% (mean growth percent): 59 cell lines
NCI-H522 = assay: NCI single-dose GI%, NSC lung; type: cell-based, human; details: 10.0 μM in one dose
K-562 = assay: NCI single-dose GI%, leukemia; type: cell-based, human; details: K-562, leukemia; 10.0 μM in one dose
MCF7 = assay: NCI single-dose GI%, breast; type: cell-based, human; details: 10.0 μM in one dose
BT-549 = assay: NCI single-dose GI%, breast; type: cell-based, human; details: BT-549, breast; 10.0 μM in one dose
A549/ATCC = assay: NCI single-dose GI%, NSC lung; type: cell-based, human; details: 10.0 μM in one dose
HL-60(TB) = assay: NCI single-dose GI%, leukemia; type: cell-based, human; details: 10.0 μM in one dose
UO-31 = assay: NCI single-dose GI%, renal; type: cell-based, human; details: UO-31, renal; 10.0 μM in one dose
CAKI-1 = assay: NCI single-dose GI%, renal; type: cell-based, human; details: CAKI-1, renal; 10.0 μM in one dose
T-47D = assay: NCI single-dose GI%, breast; type: cell-based, human; details: 10.0 μM in one dose
HOP-62 = assay: NCI single-dose GI%, NSC lung; type: cell-based, human; details: HOP-62, NSC lung; 10.0 μM in one dose
HT29 = assay: NCI single-dose GI%, colon; type: cell-based, human; details: 10.0 μM in one dose
SNB-75 = assay: NCI single-dose GI%, CNS; type: cell-based, human; details: SNB-75, CNS; 10.0 μM in one dose
EKVX = assay: NCI single-dose GI%, NSC lung; type: cell-based, human; details: 10.0 μM in one dose
NCI-H226 = assay: NCI single-dose GI%, NSC lung; type: cell-based, human; details: 10.0 μM in one dose
PC-3 = assay: NCI single-dose GI%, prostate; type: cell-based, human; details: PC-3, prostate; 10.0 μM in one dose
HCT-116 = assay: NCI single-dose GI%, colon; type: cell-based, human; details: HCT-116, colon; 10.0 μM in one dose
RPMI-8226 = assay: NCI single-dose GI%, leukemia; type: cell-based, human; details: RPMI-8226, leukemia; 10.0 μM in one dose
SR = assay: NCI single-dose GI%, leukemia; type: cell-based, human; details: 10.0 μM in one dose
SK-MEL-5 = assay: NCI single-dose GI%, melanoma; type: cell-based, human; details: SK-MEL-5, melanoma; 10.0 μM in one dose
MDA-MB-468 = assay: NCI single-dose GI%, breast; type: cell-based, human; details: MDA-MB-468, breast; 10.0 μM in one dose
MDA-MB-231/ATCC = assay: NCI single-dose GI%, breast; type: cell-based, human; details: 10.0 μM in one dose
SK-OV-3 = assay: NCI single-dose GI%, ovarian; type: cell-based, human; details: SK-OV-3, ovarian; 10.0 μM in one dose
UACC-62 = assay: NCI single-dose GI%, melanoma; type: cell-based, human; details: UACC-62, melanoma; 10.0 μM in one dose

Structure (SMILES)	melting point [°C]	GI% (MOLT-4) [%]	GI% (UACC-257) [%]	PCE (positive cytotoxic effect: ratio of cell lines with growth inhibition >10% to total cell lines) (59 cancer cell lines)	MG% (mean growth percent) (59 cancer cell lines) [%]	GI% (NCI-H522) [%]	GI% (K-562) [%]	GI% (MCF7) [%]	GI% (BT-549) [%]	GI% (A549/ATCC) [%]	GI% (HL-60(TB)) [%]	GI% (UO-31) [%]	GI% (CAKI-1) [%]	GI% (T-47D) [%]	GI% (HOP-62) [%]	GI% (HT29) [%]	GI% (SNB-75) [%]	GI% (EKVX) [%]	GI% (NCI-H226) [%]	GI% (PC-3) [%]	further results
CN(C)C/C=C/C(=O)Nc1cc2c(Nc3ccc(F)c(Cl)c3)ncnc2cc1O[C@H]1CCOC1 [Afatinib, reference compound]	–	–	–	–	–	–	–	–	–	–	–	–	–	–	–	–	–	–	–	–	IC50 [1]: 7.91 ± 0.66 µM; IC50 at 48 h (in vitro): 44 ± 1.9 µM; Mean tumor selectivity index (WI38/HL60, MCF7, and MDA-MB-231) [2]: 5.93; IC50 (leukemia HL-60): 6.5 ± 0.77 µM; IC50 (MDA-MB-231): 8.05 ± 0.72 µM
COc1cccc2c1C(=O)c1c(O)c3c(c(O)c1C2=O)C[C@@](O)(C(=O)CO)C[C@@H]3O[C@H]1C[C@H](N)[C@H](O)[C@H](C)O1 [DOX, doxorubicin, reference compound]	–	–	–	–	–	–	–	–	–	–	–	–	–	–	–	–	–	–	–	–	IC50 [1]: 4.77 ± 0.4 µM; IC50 at 48 h (in vitro): 7.12 ± 0.7 µM; Mean tumor selectivity index (WI38/HL60, MCF7, and MDA-MB-231) [2]: 1.36; IC50 (leukemia HL-60): 6.01 ± 0.2 µM; IC50 (MDA-MB-231): 5.1 ± 0.31 µM
COc1ccc(C2CC(c3ccccc3)=NN2C(=O)c2ccc(S(C)(=O)=O)cc2)cc1 (centres unmarked) [Compound 18j, (5-(4-Methoxyphenyl)-3-phenyl-4,5-dihydro-1H-pyrazol-1-yl)(4-(methylsulfonyl)phenyl)methanone]	258 to 260	26	14	10/59	97.16	14	13	–	–	24	35	–	–	16	–	–	12	12	11	–	–
COc1ccccc1C1CC(c2ccccc2)=NN1C(=O)c1ccc(S(C)(=O)=O)cc1 (centres unmarked) [Compound 18i, (5-(2-Methoxyphenyl)-3-phenyl-4,5-dihydro-1H-pyrazol-1-yl)(4-(methylsulfonyl)phenyl)methanone]	236 to 238	28	36	≤ 12/59 and 12/59	96.46	29	–	–	–	35	46	28	23	17	20	17	–	12	13	–	–
CS(=O)(=O)c1ccc(C(=O)N2N=C(c3ccc(F)cc3)CC2c2ccc(F)cc2)cc1 (centres unmarked) [Compound 18e, (3,5-Bis(4-fluorophenyl)-4,5-dihydro-1H-pyrazol-1-yl)(4-(methylsulfonyl)phenyl)methanone]	330 to 333	35	–	15/59	94.18	15	29	13	–	–	48	22	17	17	14	–	18	12	12	15	GI% (HCT-116): 17%; GI% (RPMI-8226): 12%
CS(=O)(=O)c1ccc(C(=O)N2N=C(c3ccccc3)CC2c2ccc(Cl)cc2)cc1 (centres unmarked) [Compound 18b, (5-(4-Chlorophenyl)-3-phenyl-4,5-dihydro-1H-pyrazol-1-yl)(4-(methylsulfonyl)phenyl)methanone]	321 to 323	17	–	22/59	92.03	27	32	13	14	13	22	32	18	31	29	13	13	21	15	22	GI% (MDA-MB-231/ATCC): 11%; GI% (HCT-116): 26%; GI% (SK-OV-3): 26%; GI% (RPMI-8226): 11%; GI% (MDA-MB-468): 12%; GI% (UACC-62): 14%

Second part, led by results:

melting point [°C]	Structure (SMILES)	GI% (MOLT-4) [%]	GI% (UACC-257) [%]	PCE (positive cytotoxic effect: ratio of cell lines with growth inhibition >10% to total cell lines) (59 cancer cell lines)	MG% (mean growth percent) (59 cancer cell lines) [%]	GI% (NCI-H522) [%]	GI% (K-562) [%]	GI% (MCF7) [%]	GI% (BT-549) [%]	GI% (A549/ATCC) [%]	GI% (HL-60(TB)) [%]	GI% (UO-31) [%]	GI% (CAKI-1) [%]	GI% (T-47D) [%]	GI% (HOP-62) [%]	GI% (HT29) [%]	GI% (SNB-75) [%]	GI% (EKVX) [%]	GI% (NCI-H226) [%]	GI% (PC-3) [%]	further results
198 to 200	COc1ccc(C2=NN(C(=O)c3ccc(S(C)(=O)=O)cc3)C(c3ccc(OC)cc3)C2)cc1 (centres unmarked) [Compound 18l, (3,5-Bis(4-methoxyphenyl)-4,5-dihydro-1H-pyrazol-1-yl)(4-(methylsulfonyl)phenyl)methanone]	33	45	14/59	95.78	34	18	11	13	40	47	16	14	11	11	19	11	–	–	–	–
268 to 270	COc1ccc(C2CC(c3ccc(OC)cc3OC)=NN2C(=O)c2ccc(S(C)(=O)=O)cc2)cc1 (centres unmarked) [Compound 18o, (3-(2,4-Dimethoxyphenyl)-5-(4-methoxyphenyl)-4,5-dihydro-1H-pyrazol-1-yl)(4-(methylsulfonyl)phenyl)methanone]	40	38	15/59	94.17	43	32	–	11	31	51	19	12	18	18	17	15	–	–	–	GI% (SR): 11%; GI% (SK-MEL-5): 12%
226 to 228	COc1ccc(C2=NN(C(=O)c3ccc(S(C)(=O)=O)cc3)C(c3ccccc3)C2)cc1 (centres unmarked) [Compound 18k, (3-(4-Methoxyphenyl)-5-phenyl-4,5-dihydro-1H-pyrazol-1-yl)(4-(methylsulfonyl)phenyl)methanone]	27	–	≤ 12/59 and 12/59	97.49	35	–	–	–	13	18	15	–	–	–	20	11	–	14	21	GI% (SK-MEL-5): 14%; GI% (RPMI-8226): 11%; GI% (MDA-MB-468): 16%
